Measured values reported in patent US20140200142A1, “TREATMENT OF STORED TUBERS WITH AEROSOLS OF HIGHER ALCOHOLS” (1,4 Group, Inc., priority 2013, published 2014).

What was measured:
stored potatoes = conditions: continuous vapors by wicking over an extended period; cited from earlier work
[1] = tested on: existing sprouts on post-dormant potatoes with peeps and sprouts extant; test: Comparison of thermofogged sprout suppressing chemicals for "burn" of existing sprouts (Example IV); type: in vivo; parameters: key to Burn “old” / Burn “new”: +: indicates fair effectiveness; ++: indicates good effectiveness; +++: indicates excellent effectiveness; A minus (−) sign indicates no noticeable effect; a +/− sign indicates only partial effectiveness at a minimal level; conditions: for Burn “old”: effect upon old sprouts, up to nine months old; for Burn “old” / Burn “new”: thermofogged at comparable dosages; for Burn “new”: newly emerged sprouts and peeps, generally less than a month
Protocol: Various sprout suppressing chemicals were compared for their ability to suppress existing sprouts on post-dormant potatoes with peeps and sprouts extant. […] Clove oil applied at a predetermined dosage gave a “burn” effectiveness of 46% of existing peeps while 1-nonanol at a dosage one-fourth as great gave a 50% “burn.” At a one-half dosage, 1-nonanol provided a 100% “burn” effectiveness within 24 hours after treatment. In the above table “Burn old” refers to the effect upon old sprouts, which included sprouts up to nine months old, these being generally more difficult to desiccate, while “burn new” refers to newly emerged sprouts and peeps, generally less than a month or so in existence.

[2] = tested on: peeps and sprouts on stored potatoes; test: Thermofog treatment of stored potatoes with 1-nonanol to determine sprout destruction (Example II); type: in vivo
Protocol: Stored potatoes in a small open container were treated with 1-nonanol (n-nonyl alcohol) via a thermofogger to determine sprout destruction. The thermofogger was operated at an aerosol chamber temperature of about 500° F. A good stable aerosol was produced. The alcohol was applied at a dosage of 8 ml for 2 kg of potatoes. The system was open so that the actual dosage reaching the potatoes was considerably less than the fogged amount. The potatoes were exposed to the thermofog for approximately one minute, after which the treatment containers (1-gallon bottles) were sealed and held at 53° F. for 24 hours before being connected to normal storage ventilation. In a first test the potatoes had white “peeps” showing from the eyes before treatment. […] In a second test the potatoes were treated with 1-nonanol at the same fogging temperature and dosage for the same period of time to achieve the same application dosage as in Example I. The potatoes in this storage had sprouts averaging in excess of about 2 cm in length. In this experiment, potatoes with very long sprouts, some up to eight cm or more, were treated with 1, 2, and 4 times sequentially with full strength nonanol. […] This “spray-paint” method was thus used to try to bring the total amount (rate) of nonanol up to a level capable of killing large sprouts as well as peeps, a necessity in commercial settings where sprouts of all sizes exist. It required 4 applications to reach the level at which these large sprouts were completely killed. […] While this was a small scale test, a whole storage full of potatoes in this condition would likely lead to secondary decays. Single or even double applications didn't reach a level of nonanol high enough to completely kill these large-sized sprouts.

peeps and sprouts = test: Fogging of 1-nonanol versus clove oil, "burning" peeps and sprouts (Example III); type: in vivo, potatoes; conditions: short duration, similar dosages
potatoes = test: 1-octanol thermofog on cold versus 53° F. potatoes, condensation damage (Example V); type: in vivo
Protocol: An experiment was performed wherein 1-octanol at various dosages were applied to potatoes wherein the temperature of the potatoes was at about 36° F. The 1-octanol was applied via an electric thermofogger at a fog temperature within the fogger of about 500° F. to obtain a stable aerosol. The potatoes were examined about 24 hours after treatment. […] The potatoes were cut open at the dark spots. Damage to the flesh of the potatoes existed to a depth of about 5 mm to 25 mm. Potato flesh was otherwise undamaged except under the dark spots.

SMILES: CC(CCO)CC(C)(C)C (centres unmarked) [3,5,5-trimethyl hexanol]
- damage to potato flesh (stored potatoes): damaged potato flesh, especially near affected eyes
- effect on existing sprouts (stored potatoes): strongly “burned” (desiccated) existing sprouts

SMILES: CCCCCCCCCCO [1-Decanol, 1-decanol]
- Burn “old” [1]: ++
- Burn “new” [1]: ++

SMILES: CCCCCCCCCO [1-Nonanol, 1-nonanol]
- effect on white “peeps” ([2]; first test, 8 ml for 2 kg of potatoes fogged, open system, inspected about 24 hours after treatment): burned to a dark color and were inactivated
- damage to potato flesh adjacent the eyes ([2]; first test, about 24 hours after treatment): without any damage to potato flesh adjacent the eyes
- negative side effect observed ([2]; second test, 4 applications on large sprouts): wet, slimy, sprout rot
- applications required to completely kill large sprouts ([2]; second test, sprouts up to eight cm or more, sequential full strength applications): 4 applications
- effectiveness in “burning” peeps and sprouts relative to clove oil (peeps and sprouts): about four times as effective as clove oil
- “burn” effectiveness of existing peeps ([1]; dosage one-fourth as great as the clove oil dosage): 50%
- Burn “old” [1]: +++
- Burn “new” [1]: +++
- “burn” effectiveness of existing peeps ([1]; one-half dosage, within 24 hours after treatment): 100%

SMILES: CCCCCCCCO [1-Octanol, 1-octanol]
- depth of damage to the flesh at the dark spots (potatoes; potato, in vivo, 24 h): 5-25 mm
- condition of potato skin (potatoes; potatoes at about 36° F., examined about 24 hours after treatment): large dark damaged spots
- injury to potato skin or flesh (potatoes; potatoes held at 53° F., similar dosage, fogging temperature and rate): did not show injury to the potato skin or to its flesh
- Burn “old” [1]: ++
- Burn “new” [1]: +++

SMILES: CCCCCCO [Hexanol]
- Burn “old” [1]: +
- Burn “new” [1]: ++

SMILES: CCCCCCCCCCCCO [Dodecanol]
- Burn “old” [1]: −\+
- Burn “new” [1]: −

SMILES: CCCCCOC(C)=O [AmylAcetate, reference compound]
- Burn “new” [1]: ++
